Data from US20090203877A1, “X-RAY-DENSE CONJUGATE” (Eberhard-Karls-Universitaet Tuebingen Universitaetsklinkum, priority 2006, published 2009).
Entries after “also recorded” stand apart in the source; their conditions may differ.

What was measured:
Format in all cases: cell-based
[1] = test system: human malignant LN18 glioma cells; assay: Uptake/staining of cells by FITC-labelled conjugates (CLSM, FACS, semi-thin sections); details: 20 min; for stained cells: 260 μM in PBS; for nuclear staining of cells (CLSM), in words: 260 μM
Protocol: (§1) The human malignant U373 and LN18 glioma cells were cultivated in 75 cm^2 culture flasks (Corning Costar) (70% confluency) under the conditions as described under 1.4, detached from the flask bottom with Accutase™ (PAA Laboratories) and in the following distributed on Eppendorf tubes (Eppendorf, Hamburg, Germany) (6×10^6 per tube). The cells in the first tube serve as a control (only PBS buffer only). The cells in the other ten tubes were each incubated with benzoic acid (BA), monoiodobenzoic acid (MIBA) or diiodobenzoic acid (DIBA) alone (260 μM), conjugate 3 alone (260 μM), conjugate 3 plus either BA, MIBA or DIBA (260 μM), respectively, and the conjugates 9, 10, and 11 alone. (260 μM).
(§2) After an incubation of 20 minutes at 37° C./5% CO2 the cells were washed three times with PBS buffer and centrifuged at 800 rpm (rounds per minute) for 5 minutes. The fluorescence was measured in Becton Dickinson FACSCalibur as described under 1.4. The computer tomography was performed as described under 1.5.1. The examinations were repeated two times. […]
(§3) The FACS analysis was performed as described under 1.4. The assay was repeated two times.
(§4) For the CT and FACS examinations human LN18 and U373 glioma cells were cultivated in 75 cm^2 culture flasks (70% confluency) (conditions as described under section 1). Accutase™ (PAA Laboratories) was added to detach the cell from the culture bottom. The cells were collected and then distributed on Eppendorf-tubes (6×10^6 cells per tube). […] The next three tubes were used for the coincubation of the cells either with trichlorobenzoic acid (TCBA), trifluorobenzoic acid (TFBA) or tribromophenyl Isocyanat (TBPI) and the NLS-FITC-conjugate 3 (260 μM). As control cells were used which were only either incubated with CIBA, FIBA, TBPI (in each case 260 μM in PBS) or with PBS-buffer (native control) alone. […] The computer tomography and FACS analysis of the cell centrifuges were performed as described in 1.5.1 or 1.4, respectively for three times.
All measurements were performed on living cells.
All measurements were performed on living cells in triplicates.
A part of the cells which were stained for the FACS analysis, was fixed by paraformaldehyl with 2% Agar, dehydrogenized in ethanol, embedded in Lowicryl K4M (Polysciences, Eppelheim, Germany) and according to the information of the manufacturer UV-polymerised at room temperature. Semi-thin sections (about 0.4 μm) were cut and evaluated by means of fluorescence microscopy.

[2] = test system: human malignant LN18 glioma cells; assay: Cell viability / cell death (annexin-V-Alexa 568 binding, propidium iodide, FACS scatter morphology); details: 260 μM, 20 min, substance alone
Protocol: All measurements were performed on living, non-fixed cells. […] All measurements were performed on living cells. […] All measurements were performed on living cells in triplicates. […] All measurements were performed on living cells.

[3] = test system: human malignant U373 glioma cells; assay: Uptake/staining of cells by FITC-labelled conjugates (fluorescence microscopy, CLSM, FACS, semi-thin sections); details: for strongly labeled (heavily stained) cells, FACS: 20 min incubation; for stained cells: 260 μM in PBS, 20 min (experiments with conjugates 9-15)
Protocol: Fluorescence was measured in a Becton Dickinson FACSCalibur. […] The investigations were performed in triplicate.
(§5) For CT and FACS human U373 glioma cells were grown under the same conditions in 75 cm^2 culture flasks (Corning Costar, Bodenheim, Germany) (70% confluency). Accutase™ (PAA laboratories, Pasching, Austria) was added to achieve detachment of the cells which were harvested and subsequently aliquoted into Eppendorf tubes (6×10^6 cells per tube). As in the investigations performed by fluorescence microscopy, the cells in the first tube served as a control (PBS only). The cells in the other tubes were incubated with 260 μM Ultravist, 260 μM TIBA in PBS and 26 μM, 260 μM and 2.6 mM conjugates 1-4 in PBS. After a 20 minute incubation period at 37° C. in an atmosphere of 5% CO2, the cells were washed three times in PBS and centrifuged at 800 rpm for 5 minutes.
The FACS analysis was performed as described under 1.4.
as §1
After an incubation of 20 minutes at 37° C./5% CO2 the cells were washed three times with PBS buffer and centrifuged at 800 rpm (rounds per minute) for 5 minutes. The fluorescence was measured in Becton Dickinson FACSCalibur as described under 1.4. The computer tomography was performed as described under 1.5.1. The examinations were repeated two times.
For the CT and FACS examinations human LN-18 and U373 glioma cells were cultivated in 75 cm^2 culture flasks (Corning Costar) (70% confluency) (conditions as described under 1.4). Accutase™ (PAA Laboratories) was added to detach the cells from the bottom of the culture flasks. The cells were collected and then distributed on Eppendorf tubes (6×10^6 cells per tube). The cells in the first two tubes serve as a control (in each case only PBS, LN18 and U373 glioma cells, native). The cells in the other tubes (in each case LN18 and U373 glioma cells) were incubated with a 260 μM or 2.6 mM solution of the conjugate 12 for 20 minutes at 37° C. and 5% CO2 and in the following washed for three times with PBS buffer and centrifuged for 5 minutes with 800 rpm (rounds per minute). For a small amount of the cells it was tested by the MMT test (see 1.4) how many of the cells were still viable. The computer tomography of the cell centrifuges was performed with the Somatom Sensation 16 (Siemens).
as §3
as §4, with “times. […]” for “times.”

[4] = test system: human malignant U373 glioma cells; assay: Computer tomography, signal density of cell pellets
Protocol: as §5
The inner ear spiral CT protocol consisted of: tube voltage 120 KV, effective mAs 550, time of imaging TI: 1.5, SL 0.75/0.75/4.5, FOV: 50 0/52, kernel: U70, window: intervertebral disc.
3D-images were obtained using InSpace Software (Syngo CT 2006G) (Siemens AG, Erlangen, Germany).
as §2
An Orbita CT spiral was used: tube voltage 120 KV, effective mAs 550, time of imaging TI: 1.5, SL 0.75/0.75/4.5, FOV: 50 0/52, GT: 0.0, kernel: U70, window: intervertebral disc. 3D images were made with the InSpace Software (Syngo CT 2006G) (Siemens AG, Erlangen, Germany). […]

Substance | stained cells [1] [%] | nuclear staining of cells (CLSM), in words [1] | cell death / vitality (annexin-V-Alexa 568, propidium iodide) [2] | strongly labeled (heavily stained) cells, FACS ([3]; 26 μM) [%] | stained cells [3] [%] | strongly labeled (heavily stained) cells, FACS ([3]; 260 μM) [%] | strongly labeled (heavily stained) cells, FACS ([3]; 2.6 mM) [%] | number of stained cells / cellular staining rate ([3]; conjugate co-incubated with free TIBA (260 μM)) | CT signal density of cell pellets ([4]; 26 μM, 20 min) | CT signal density of cell pellets ([4]; 260 μM, 20 min) | CT signal density of cell pellets ([4]; 2.6 mM, 20 min) | CT signal density of cell pellets ([4]; varying concentrations (26 μM, 260 μM and 2.6 mM) and PBS alone) | staining of cell nuclei (CLSM overview) ([3]; 260 μM) | staining of nucleoli in semi-thin sections (about 0.4 μm) ([3]; fluorescence microscopy after incubation)
PKKKRKVK(FITC)GGK (FITC, GGK linker) [conjugate 3, FITC-labelled correct NLS of the SV 40 T antigen without TIBA] | 9 | nuclear staining of few cells; also recorded: does only stain the nucleus of few cells | remain vital; also recorded: did not show any signs of cell death; also recorded: without a sign of cell dead | 6 | 8 | 7 | 10 | not associated with a higher cellular staining rate; also recorded: did not result in any changes |  |  |  |  |  | 
PKKKRKVK(FITC)GGK(BA) (FITC, GGK linker, benzoic acid) [conjugate 9, FITC-labelled NLS of the SV 40 T antigen with non-iodized benzoic acid] | 9 | nuclear staining of few cells; also recorded: the staining rate did not increase | remain vital; also recorded: no signs of cell death; also recorded: remain viable |  | 8 |  |  |  |  |  |  |  |  | 
PKKKRKVK(FITC)GGK(TIBA) (FITC, GGK linker, TIBA) [conjugate 1, FITC-labelled correct NLS of the SV 40 T antigen with TIBA] |  |  |  | 32 |  | 32 | 93 |  | only low signal density values | significant increase in signal density | significant increase in signal density | did result in differences in signal densities | A very large number of cell nuclei has been stained | clearly stained
